In PubChem BioAssay AID330 (DTP/NCI, 2004):
Several values for one entry are separate records, joined by “and”; a condition that tells them apart may be missing. Identical values can stand only once. Toxic doses and inconclusive results are not listed. Rule for the calls: active = survival T/C of 150% or more; inactive = T/C below 125% in these data.

System: P388 leukemia ip, CD2F1 mice, survival T/C
Assay: NCI In Vivo Anticancer Drug Screen. Data for tumor model P388 Leukemia (intraperitoneal) in CD2F1 (CDF1) mice
Conditions: endpoint: median survival time, higher = longer survival
Procedure, shortened: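 Mice carrying the transplanted tumor received test compound or vehicle. Survival was recorded in each group, and the value is the treated-group measurement divided by that of the vehicle-treated control group.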

[1] = dose: 25.0 mg/kg/injection, schedule: Q01DX009 (ip), vehicle: saline with Tween-80
[2] = dose: 50.0 mg/kg/injection, schedule: Q01DX009 (ip), vehicle: saline with Tween-80
[3] = dose: 100.0 mg/kg/injection, schedule: Q01DX009 (ip), vehicle: saline with Tween-80
[4] = dose: 100.0 mg/kg/injection, schedule: Q04DX002 (ip), vehicle: Klucel (hydroxypropylcellulose) (HPC)
[5] = dose: 200.0 mg/kg/injection, schedule: Q04DX002 (ip), vehicle: Klucel (hydroxypropylcellulose) (HPC)
[6] = dose: 400.0 mg/kg/injection, schedule: Q04DX002 (ip), vehicle: Klucel (hydroxypropylcellulose) (HPC)
[7] = dose: 50.0 mg/kg/injection, schedule: Q01DX005 (ip), vehicle: saline with Tween-80
[8] = dose: 100.0 mg/kg/injection, schedule: Q01DX005 (ip), vehicle: saline with Tween-80
[9] = dose: 200.0 mg/kg/injection, schedule: Q01DX005 (ip), vehicle: saline with Tween-80

Measured: T/C

CSc1c(Cl)cc(Cl)cc1C(=O)O
inactive: dose: 16.5 mg/kg/injection, schedule: Q01DX009 (ip), vehicle: saline with Tween-80 100 % of control and 110 % of control | [1] 105 % of control and 106 % of control | dose: 37.5 mg/kg/injection, schedule: Q01DX009 (ip), vehicle: saline with Tween-80 117 % of control and 97 % of control | dose: 50.0 mg/kg/injection, schedule: Q01DX009 (ip), vehicle: saline + alcohol 112 % of control | dose: 100.0 mg/kg/injection, schedule: Q01DX009 (ip), vehicle: saline + alcohol 110 % of control | dose: 200.0 mg/kg/injection, schedule: Q01DX009 (ip), vehicle: saline + alcohol 112 % of control

Cn1c(-c2ccccc2Cl)cc(C=O)c1-c1ccccc1
inactive: dose: 100.0 mg/kg/injection, schedule: Q01DX001 (ip), vehicle: saline with Tween-80 99 % of control | dose: 200.0 mg/kg/injection, schedule: Q01DX001 (ip), vehicle: saline with Tween-80 93 % of control | dose: 400.0 mg/kg/injection, schedule: Q01DX001 (ip), vehicle: saline with Tween-80 93 % of control

CC(N)C(=O)NC(C)P(=O)(O)O (stereo not given)
inactive: [2] 102 % of control | [3] 101 % of control | dose: 200.0 mg/kg/injection, schedule: Q01DX009 (ip), vehicle: saline with Tween-80 101 % of control

CN1CCC(/C=C/c2ccccc2)CN1 (stereo not given) (tested in a mixture with another compound)
inactive: dose: 50.0 mg/kg/injection, schedule: Q01DX009 (ip), vehicle: saline 113 % of control | dose: 100.0 mg/kg/injection, schedule: Q01DX009 (ip), vehicle: saline 118 % of control

O=C(CC(=O)CC(O)(C(F)(F)F)C(F)(F)F)CC(O)(C(F)(F)F)C(F)(F)F
inactive: dose: 1.25 mg/kg/injection, schedule: Q04DX003 (ip), vehicle: saline 100 % of control | dose: 2.5 mg/kg/injection, schedule: Q04DX003 (ip), vehicle: saline 95 % of control

NC(=S)N/N=C/c1ccncn1
inactive: dose: 6.25 mg/kg/injection, schedule: Q01DX009 (ip), vehicle: Klucel (hydroxypropylcellulose) (HPC) 93 % of control | dose: 6.25 mg/kg/injection, schedule: Q04DX003 (ip), vehicle: Klucel (hydroxypropylcellulose) (HPC) 111 % of control | dose: 12.5 mg/kg/injection, schedule: Q01DX009 (ip), vehicle: Klucel (hydroxypropylcellulose) (HPC) 92 % of control | dose: 12.5 mg/kg/injection, schedule: Q04DX003 (ip), vehicle: Klucel (hydroxypropylcellulose) (HPC) 101 % of control | dose: 12.5 mg/kg/injection, schedule: Q04DX003 (ip), vehicle: saline with Tween-80 123 % of control | dose: 25.0 mg/kg/injection, schedule: Q01DX009 (ip), vehicle: Klucel (hydroxypropylcellulose) (HPC) 100 % of control | dose: 25.0 mg/kg/injection, schedule: Q04DX003 (ip), vehicle: Klucel (hydroxypropylcellulose) (HPC) 111 % of control | dose: 50.0 mg/kg/injection, schedule: Q04DX003 (ip), vehicle: Klucel (hydroxypropylcellulose) (HPC) 112 % of control

N#CCCN(C(=O)Nc1ccccc1)c1ccccc1
inactive: dose: 50.0 mg/kg/injection, schedule: Q01DX009 (ip), vehicle: Klucel (hydroxypropylcellulose) (HPC) 103 % of control | dose: 100.0 mg/kg/injection, schedule: Q01DX009 (ip), vehicle: Klucel (hydroxypropylcellulose) (HPC) 107 % of control | dose: 200.0 mg/kg/injection, schedule: Q01DX009 (ip), vehicle: Klucel (hydroxypropylcellulose) (HPC) 107 % of control

[Cu+2].[NH-]C(=O)NC([NH-])=O.[NH-]C(=O)NC([NH-])=O
inactive: dose: 6.25 mg/kg/injection, schedule: Q01DX005 (ip), vehicle: saline with Tween-80 99 % of control | dose: 12.5 mg/kg/injection, schedule: Q01DX005 (ip), vehicle: saline with Tween-80 99 % of control

CCOC(=O)/C(=C(/C)N=Cc1ccccc1[N+](=O)[O-])C(NN=O)c1ccccc1[N+](=O)[O-] (stereo not given)
inactive: dose: 25.0 mg/kg/injection, schedule: Q01DX005 (ip), vehicle: Klucel (hydroxypropylcellulose) (HPC) 97 % of control | dose: 50.0 mg/kg/injection, schedule: Q01DX005 (ip), vehicle: Klucel (hydroxypropylcellulose) (HPC) 93 % of control | dose: 100.0 mg/kg/injection, schedule: Q01DX005 (ip), vehicle: Klucel (hydroxypropylcellulose) (HPC) 88 % of control and 90 % of control

C=Cc1nc(=O)[nH]c(=O)[nH]1
inactive: [4] 97 % of control | dose: 100.0 mg/kg/injection, schedule: Q04DX002 (ip), vehicle: saline 101 % of control | [5] 91 % of control | dose: 200.0 mg/kg/injection, schedule: Q04DX002 (ip), vehicle: saline 108 % of control | [6] 97 % of control | dose: 400.0 mg/kg/injection, schedule: Q04DX002 (ip), vehicle: saline 98 % of control

[NH2-].[NH2-].[NH2-].[NH2-].[NH2-].[NH2-].[Ni]
inactive: dose: 6.25 mg/kg/injection, schedule: Q01DX001 (ip), vehicle: saline 97 % of control | dose: 12.5 mg/kg/injection, schedule: Q01DX001 (ip), vehicle: saline 100 % of control | dose: 25.0 mg/kg/injection, schedule: Q01DX001 (ip), vehicle: saline 98 % of control

COc1nc(N)nc(Cl)n1
inactive: dose: 12.5 mg/kg/injection, schedule: Q01DX009 (ip), vehicle: saline with Tween-80 105 % of control | [1] 107 % of control | [2] 101 % of control | [3] 98 % of control

CC1(C=O)CCCC2(C)[C@@H]1CCC13CC(CC[C@H]12)C(C(=O)O)C3 (stereo not given in full)
inactive: dose: 3.25 mg/kg/injection, schedule: Q01DX005 (ip), vehicle: Klucel (hydroxypropylcellulose) (HPC) 86 % of control | dose: 6.5 mg/kg/injection, schedule: Q01DX005 (ip), vehicle: Klucel (hydroxypropylcellulose) (HPC) 90 % of control | dose: 13.0 mg/kg/injection, schedule: Q01DX005 (ip), vehicle: Klucel (hydroxypropylcellulose) (HPC) 87 % of control

CCOC(=O)NC(=S)Nc1cn(C)cc1[N+](=O)[O-]
inactive: [7] 100 % of control | [8] 100 % of control | [9] 95 % of control

CCCC[As](CCCC)SC1OC(C2COC(C)(C)O2)C2OC(C)(C)OC12 (stereo not given)
inactive: dose: 0.78 mg/kg/injection, schedule: Q01DX009 (ip), vehicle: water 101 % of control | dose: 1.56 mg/kg/injection, schedule: Q01DX009 (ip), vehicle: water 117 % of control | dose: 3.13 mg/kg/injection, schedule: Q01DX009 (ip), vehicle: distilled water + Tween-80 122 % of control | dose: 3.13 mg/kg/injection, schedule: Q01DX009 (ip), vehicle: water 101 % of control | dose: 6.25 mg/kg/injection, schedule: Q01DX009 (ip), vehicle: distilled water + Tween-80 96 % of control | dose: 6.25 mg/kg/injection, schedule: Q01DX009 (ip), vehicle: water 111 % of control | dose: 12.5 mg/kg/injection, schedule: Q01DX009 (ip), vehicle: distilled water + Tween-80 123 % of control | dose: 25.0 mg/kg/injection, schedule: Q01DX009 (ip), vehicle: distilled water + Tween-80 88 % of control

CCOC(=O)/C=C/c1nc(OCC)c(C)c(C(=O)OCC)n1
inactive: dose: 12.5 mg/kg/injection, schedule: Q01DX009 (ip), vehicle: other 95 % of control | dose: 25.0 mg/kg/injection, schedule: Q01DX009 (ip), vehicle: other 102 % of control | dose: 50.0 mg/kg/injection, schedule: Q01DX009 (ip), vehicle: other 98 % of control | dose: 100.0 mg/kg/injection, schedule: Q01DX009 (ip), vehicle: other 103 % of control | dose: 200.0 mg/kg/injection, schedule: Q01DX009 (ip), vehicle: other 90 % of control

NC(Cc1c(Br)[nH]c2ccccc12)C(=O)O (stereo not given)
inactive: [7] 98 % of control | [8] 103 % of control | [9] 104 % of control

CSC(=S)n1nc(C)c(N=Nc2cccc(C)c2C)c1C
inactive: [4] 96 % of control | [5] 96 % of control | [6] 100 % of control
